This series is classed as physicochemical. The method, then: The temperature was adjusted to 90° C. The 2,4-DHBP concentration in the feed DIOPAT suspension of the diafiltration was about 0.32%. […] Thus, some 2,4-DHBP probably was already precipitated and had to be brought back into solution during the DF process. In the DF process, the DIOPAT suspension was held at 90° C. and was permanently washed with 12 kg fresh water. During the washing process, the DIOPAT concentration stayed constant. To separate the Al-salts and organic by-products, the DIOPAT suspension was pumped from the feed vessel to a ceramic membrane module and from there back to the feed vessel. In the ceramic membrane, the dissolved components (Al-salts and some org. components such as 2,4-DHBP) passed through the membrane. The DIOPAT particles stayed in the suspension and went back to the feed vessel. The permeate was send to the waste water treatment plant. In total, the suspension at the beginning of the membrane process (suspension after precipitation) was washed with a washing factor of 4.5. Then, the Al-salt concentration in the retentate was less than approx. 65 ppm.

As for `O=C(c1ccccc1)c1ccc(O)cc1O` [2,4-DHBP, 2,4-dihydroxybenzophenone], the “solubility in acidic water” value is on record as “about 0.18%”.
